Reference: the NIST ThermoML archive (doi:10.1021/acs.jced.8b00521)
± gives the expanded uncertainty stated by the source.

Assay: xn = mol fraction of the nth substance listed
Settings: 303.15 K, Liquid; for viscosity: Capillary tube (Ostwald / Ubbelohde) method; for mass density: Vibrating tube method

CCCCCCCC(=O)OCC [ethyl octanoate] + CCCCCCCCCCCC(=O)OC
Settings | mass density [kg/m3] | viscosity [mPa·s]
100 kPa, x2 = 0.1 | 859 ± 2 | 1.41 ± 0.04
100 kPa, x2 = 0.1999 | 859 ± 2 | 1.52 ± 0.05
100 kPa, x2 = 0.3001 | 859 ± 2 | 1.61 ± 0.05
100 kPa, x2 = 0.4 | 860 ± 2 | 1.71 ± 0.05
100 kPa, x2 = 0.4999 | 860 ± 2 | 1.82 ± 0.06
100 kPa, x2 = 0.6001 | 860 ± 2 | 1.96 ± 0.06
100 kPa, x2 = 0.6999 | 861 ± 2 | 2.08 ± 0.06
100 kPa, x2 = 0.8001 | 861 ± 2 | 2.19 ± 0.07
100 kPa, x2 = 0.9 | 862 ± 2 | 2.32 ± 0.07
2940 kPa, x2 = 0.4999 | 862 ± 2 | 1.9 ± 0.06
2960 kPa, x2 = 0.1 | 860 ± 2 | 1.46 ± 0.05
2960 kPa, x2 = 0.3001 | 861 ± 2 | 1.66 ± 0.05
2980 kPa, x2 = 0.1999 | 860 ± 2 | 1.56 ± 0.05
2980 kPa, x2 = 0.4 | 861 ± 2 | 1.75 ± 0.05
2990 kPa, x2 = 0.6001 | 862 ± 2 | 2.05 ± 0.06
2990 kPa, x2 = 0.9 | 863 ± 2 | 2.4 ± 0.07
3000 kPa, x2 = 0.8001 | 863 ± 2 | 2.28 ± 0.07
3080 kPa, x2 = 0.6999 | 862 ± 2 | 2.15 ± 0.07
5980 kPa, x2 = 0.8001 | 865 ± 2 | 2.37 ± 0.07
6000 kPa, x2 = 0.4999 | 863 ± 2 | 1.96 ± 0.06
6010 kPa, x2 = 0.1 | 861 ± 2 | 1.51 ± 0.05
6020 kPa, x2 = 0.6001 | 864 ± 2 | 2.12 ± 0.07
6030 kPa, x2 = 0.1999 | 862 ± 2 | 1.6 ± 0.05
6040 kPa, x2 = 0.6999 | 864 ± 2 | 2.24 ± 0.07
6060 kPa, x2 = 0.9 | 865 ± 2 | 2.48 ± 0.08
6080 kPa, x2 = 0.3001 | 863 ± 2 | 1.71 ± 0.05
6100 kPa, x2 = 0.4 | 863 ± 2 | 1.82 ± 0.06
8950 kPa, x2 = 0.8001 | 867 ± 2 | 2.44 ± 0.08
8980 kPa, x2 = 0.1999 | 863 ± 2 | 1.66 ± 0.05
8980 kPa, x2 = 0.3001 | 864 ± 2 | 1.78 ± 0.06
8990 kPa, x2 = 0.4 | 865 ± 2 | 1.88 ± 0.06
8990 kPa, x2 = 0.9 | 868 ± 2 | 2.56 ± 0.08
9030 kPa, x2 = 0.1 | 863 ± 2 | 1.55 ± 0.05
9040 kPa, x2 = 0.6999 | 866 ± 2 | 2.31 ± 0.07
9050 kPa, x2 = 0.6001 | 866 ± 2 | 2.19 ± 0.07
9090 kPa, x2 = 0.4999 | 865 ± 2 | 2.02 ± 0.06
11960 kPa, x2 = 0.6999 | 868 ± 2 | 2.38 ± 0.07
11960 kPa, x2 = 0.8001 | 869 ± 2 | 2.5 ± 0.08
11980 kPa, x2 = 0.1 | 864 ± 2 | 1.59 ± 0.05
12000 kPa, x2 = 0.3001 | 866 ± 2 | 1.83 ± 0.06
12010 kPa, x2 = 0.6001 | – | 2.24 ± 0.07
